In US6417199B1, “3-benzyl-benzothiophenes” (Eli Lilly and Company, priority 1995, dated 2002):
pEC50: −log10 of the molar value.

What was measured:
Serum Cholesterol = assay: Serum cholesterol in ovariectomized rat post-menopausal model; format: in vivo, Sprague Dawley rats; conditions: ovariectomized rats, dosed orally daily for 4 days; for ED50: Rattus norvegicus, po, 96 h
Protocol: In the examples illustrating the methods, a post-menopausal model was used in which effects of different treatments upon circulating lipids were determined.
Seventy-five day old female Sprague Dawley rats (weight range of 200 to 225 g) are obtained from Charles River Laboratories (Portage, Mich.). The animals are either bilaterally ovariectomized (OVX) or exposed to a Sham surgical procedure at Charles River Laboratories, and then shipped after one week. Upon arrival, they are housed in metal hanging cages in groups of 3 or 4 per cage and had ad libitum access to food (calcium content approximately 0.5%) and water for one week. Room temperature is maintained at 22.2°±1.7° C. with a minimum relative humidity of 40%. The photoperiod in the room was 12 hours light and 12 hours dark.
Dosing Reaimen Tissue Collection. After a one week acclimation period (therefore, two weeks post-OVX) daily dosing with test compound is initiated. 17α-ethynyl estradiol or the test compound is given orally, unless otherwise stated, as a suspension in 1% carboxymethylcellulose or dissolved in 20% cyclodextrin. Animals are dosed daily for 4 days. Following the dosing regimen, animals are weighed and anesthetized with a ketamine: xylazine (2:1, V:V) mixture and a blood sample is collected by cardiac puncture. The animals are then sacrificed by asphyxiation with CO2, the uterus is removed through a midline incision, and a wet uterine weight is determined.
Cholesterol Analysis. Blood samples are allowed to clot at room temperature for 2 hours, and serum is obtained following centrifugation for 10 minutes at 3000 rpm. Serum cholesterol is determined using a Boehringer Mannheim Diagnostics high performance cholesterol assay. Briefly the cholesterol is oxidized to cholest-4-en-3-one and hydrogen peroxide. The hydrogen peroxide is then reacted with phenol and 4-aminophenazone in the presence of peroxidase to produce a p-quinone imine dye, which is read spectrophotemetrically at 500 nm. Cholesterol concentration is then calculated against a standard curve. The entire assay is automated using a Biomek Automated Workstation.
Data presented in Table 1 below show results when rats were treated with certain compounds of the present invention. The compounds of the present invention generally reduce serum cholesterol compared to the ovariectomized control animals.

[1] = system: MCF-7 breast adenocarcinoma cells; assay: MCF-7 Proliferation Assay; format: cell-based; conditions: Homo sapiens, MCF7; MCF-7 cells, 48 hours with drug, tritiated thymidine incorporation; read-out: ED50 (the source's name)
Protocol: MCF-7 breast adenocarcinoma cells (ATCC HTB 22) were maintained in MEM (minimal essential medium, phenol red-free, Sigma, St. Louis, Mo.) supplimented with 10% fetal bovine serum (FBS) (V/V), L-glutamine (2 mM), sodium pyruvate (1 mM), HEPES {(N-[2-hydroxyethyl]piperazine-N′-[2-ethanesulfonic acid]10 mM}, non-essential amino acids and bovine insulin (1 ug/mL) (maintenance medium). Ten days prior to assay, MCF-7 cells were switched to maintenance medium supplemented with 10% dextran coated charcoal stripped fetal bovine serum (DCC-FBS) assay medium) in place of 10% FBS to deplete internal stores of steroids. MCF-7 cells were removed from maintenance flasks using cell dissociation medium (Ca++/Mg++ free HBSS (phenol red-free) supplemented with 10 mM HEPES and 2 mM EDTA). Cells were say medium and adjusted to 80,000 cells/mL. Approximately 100 μL (8,000 cells) were added to flat-bottom microculture wells (Costar 3596) and incubated at 37° C. in a 5% CO2 humidified incubator for 48 hours to allow for cell adherence and equilbration after transfer. Serial dilutions of drugs or DSMO as a diluent control were prepared in assay medium and 50 μL transferred to triplicate microcultures followed by 50 μL assay medium for a final volume of 200 μL. After an additional 48 hours at 37° C. in a 5% CO2 humidified incubator, microcultures were pulsed with tritiated thymidine (1 uCi/well) for 4 hours. Cultures were terminated by freezing at −70° C. for 24 hours followed by thawing and harvesting of microcultures using a Skatron Semiautomatic Cell Harvester. Samples were counted by liquid scintillation using a Wallac BetaPlace β counter. Results in Table 2 below show the ED50 for certain compounds of the present invention.

Row | SMILES | Serum Cholesterol ED50 (mg/kg) (Serum Cholesterol) | pEC50 [1] | ED50 (Serum Cholesterol) [mg/kg]
1 | OCCNC(c1ccc(OCCN2CCCCC2)cc1)c1c(-c2ccc(O)cc2)sc2cc(O)ccc12 (centres unmarked) [Example 18] | N.A. at 10.0; | 7.05 | 
2 | Oc1ccc(C2Sc3cc(O)ccc3C2C(OCc2ccccc2)c2ccc(OCCN3CCCCC3)cc2)cc1 (centres unmarked) [Example 6] |  | 9.30 | 10
3 | Oc1ccc(-c2sc3cc(O)ccc3c2C(c2ccc(OCCN3CCCCC3)cc2)N2CCCC2)cc1 (centres unmarked) [Example 16] |  | 7.82 | 10
4 | Oc1ccc(-c2sc3cc(O)ccc3c2C(c2ccc(OCCN3CCCCC3)cc2)N2CCCCCC2)cc1 (centres unmarked) [Example 17] |  | 7.52 | 10
5 | CSC(c1ccc(OCCN2CCCCC2)cc1)c1c(-c2ccc(O)cc2)sc2cc(O)ccc12 (centres unmarked) [Example 9] |  | 8.52 | 5.1
6 | CN(C)C(c1ccc(OCCN2CCCCC2)cc1)c1c(-c2ccc(O)cc2)sc2cc(O)ccc12 (centres unmarked) [Example 11] |  | 7.70 | 0.1
7 | CCCOC(c1ccc(OCCN2CCCCC2)cc1)c1c(-c2ccc(O)cc2)sc2cc(O)ccc12 (centres unmarked) [Example 3] |  | 8.70 | 10
8 | CNC(c1ccc(OCCN2CCCCC2)cc1)c1c(-c2ccc(O)cc2)sc2cc(O)ccc12 (centres unmarked) [Example 12] |  | 8.40 | 0.8
9 | CCN(CC)C(c1ccc(OCCN2CCCCC2)cc1)c1c(-c2ccc(O)cc2)sc2cc(O)ccc12 (centres unmarked) [Example 15] |  | 8.15 | 3.8
10 | CC(C)OC(c1ccc(OCCN2CCCCC2)cc1)c1c(-c2ccc(O)cc2)sc2cc(O)ccc12 (centres unmarked) [Example 4] |  | 8.00 | 4.1
11 | CCCCOC(c1ccc(OCCN2CCCCC2)cc1)c1c(-c2ccc(O)cc2)sc2cc(O)ccc12 (centres unmarked) [Example 5] |  | 8.82 | 2.5
12 | CCOC(c1ccc(OCCN2CCCCC2)cc1)c1c(-c2ccc(O)cc2)sc2cc(O)ccc12 (centres unmarked) [Example 2] |  | 8.52 | 10
13 | NC(c1ccc(OCCN2CCCCC2)cc1)c1c(-c2ccc(O)cc2)sc2cc(O)ccc12 (centres unmarked) [Example 14] |  | 8.22 | 5.7
14 | COC(c1ccc(OCCN2CCCCC2)cc1)c1c(-c2ccc(O)cc2)sc2cc(O)ccc12 (centres unmarked) [Example 1] |  | 9.10 | 3.5
15 | OCCOC(c1ccc(OCCN2CCCCC2)cc1)c1c(-c2ccc(O)cc2)sc2cc(O)ccc12 (centres unmarked) [Example 8] |  | 7.70 | 2.9
16 | N#CCCOC(c1ccc(OCCN2CCCCC2)cc1)c1c(-c2ccc(O)cc2)sc2cc(O)ccc12 (centres unmarked) [Example 7] |  | 8.15 | 2.4
17 | Oc1ccc(-c2sc3cc(O)ccc3c2C(NN2CCCCC2)c2ccc(OCCN3CCCCC3)cc2)cc1 (centres unmarked) [Example 20] |  | 8.15 | 10
18 | N#CC(c1ccc(OCCN2CCCCC2)cc1)c1c(-c2ccc(O)cc2)sc2cc(O)ccc12 (centres unmarked) [Example 13] |  | 9.10 | 0.8
19 | CCSC(c1ccc(OCCN2CCCCC2)cc1)c1c(-c2ccc(O)cc2)sc2cc(O)ccc12 (centres unmarked) [Example 10] |  | 8.92 | 1.7
